The results in this text go back to ChEMBL document CHEMBL1156232, “Non-classical antifolates. Part 2: synthesis, biological evaluation, and molecular modeling study of some new 2,6-substituted-quinazolin-4-ones” (Bioorg Med Chem, 2010).

As a reminder, the MIC is the lowest concentration found to suppress growth. The term IC50 denotes the point on the concentration scale where inhibition reaches its midpoint. A high value points to a need for much substance.

In brackets after ≈: the same amount, converted by molar mass. Activity calls are given as the source filed them. No cut-off for these calls is given here.

For test [1], the system named is Escherichia coli. Put plainly: Antibacterial activity against Escherichia coli after 24 hrs by microdilution susceptibility method. The format is functional. In general terms: Dilution methods test growth across graded concentrations, often in twofold steps.
Test [2] deals with Bacillus subtilis. Put plainly: Antibacterial activity against Bacillus subtilis after 24 hrs by microdilution susceptibility method. Type of test: functional.
The test system of test [3] is Pseudomonas aeruginosa. The experiment in a line: Antibacterial activity against Pseudomonas aeruginosa at 200 ug/disk after 24 hrs by disk diffusion method. Type of test: functional. To be noted: for zone of inhibition at 200 µg/disc: read-out: DIZ. On the technique in general: A growth-free zone around the sample is the usual read-out of agar diffusion tests.
In test [4] the target is T1, Dihydrofolate reductase (Homo sapiens, UniProt P00374).
T1 sequence (P00374 whole entry): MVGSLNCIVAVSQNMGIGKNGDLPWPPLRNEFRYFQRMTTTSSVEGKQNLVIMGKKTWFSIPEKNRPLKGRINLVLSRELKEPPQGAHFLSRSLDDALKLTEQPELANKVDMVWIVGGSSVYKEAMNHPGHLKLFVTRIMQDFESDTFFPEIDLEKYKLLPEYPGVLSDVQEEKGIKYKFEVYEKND
Description: Inhibition of human DHFR after 2 mins

For test [5], the system named is Staphylococcus aureus. The experiment in a line: Antibacterial activity against Staphylococcus aureus at 200 ug/disk after 24 hrs by disk diffusion method. The format is functional.
The subject of test [6] is Candida albicans. Put plainly: Antifungal activity against Candida albicans at 200 ug/disk after 48 hrs by disk diffusion method. The format is functional, organism-based.
For test [7], the system named is Escherichia coli. Put plainly: Antibacterial activity against Escherichia coli at 200 ug/disk after 24 hrs by disk diffusion method. Type of test: functional. Particulars: for zone of inhibition at 200 µg/disc: read-out: DIZ.
Test [8] addresses T2, Dihydrofolate reductase (Bos taurus, UniProt P00376).
T2 sequence (P00376 whole entry): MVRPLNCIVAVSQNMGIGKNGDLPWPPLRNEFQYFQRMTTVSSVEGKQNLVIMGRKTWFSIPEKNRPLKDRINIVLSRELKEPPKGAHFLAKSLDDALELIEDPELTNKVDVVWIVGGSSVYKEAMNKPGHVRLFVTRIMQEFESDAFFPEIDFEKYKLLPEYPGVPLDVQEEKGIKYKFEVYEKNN
Description: Inhibition of bovine DHFR after 2 mins

In test [9] the test system is Candida albicans. The experiment in a line: Antifungal activity against Candida albicans after 48 hrs by microdilution susceptibility method. Type of test: functional, organism-based.
Test [10] concerns Micrococcus luteus. The experiment in a line: Antibacterial activity against Micrococcus luteus at 200 ug/disk after 24 hrs by disk diffusion method. The format is functional.
For test [11], the system named is Bacillus subtilis. The experiment in a line: Antibacterial activity against Bacillus subtilis at 200 ug/disk after 24 hrs by disk diffusion method. To be noted: for zone of inhibition at 200 µg/disc: read-out: DIZ. The format is functional.
The subject of test [12] is Staphylococcus aureus. Put plainly: Antibacterial activity against Staphylococcus aureus after 24 hrs by microdilution susceptibility method. The format is functional.

As for `CSc1nc2ccc(N(C/C=C/c3ccccc3)C/C=C/c3ccccc3)cc2c(=O)n1Cc1ccccc1`, the MIC in test [1] came to 16 µg/mL (≈ 30.2 µM); in [2], 8 µg/mL (≈ 15.1 µM). Further, the “diameter of the inhibition zone (DIZ)” value in test [3], in test [5] and in [10] was “inactive” each time. Also, the IC50 is 800 nM in [4] and 600 nM in test [8]. For the same compound, the result in test [6] and in [9] was inactive. Further, the results for the zone of inhibition at 200 µg/disc in test [7] and in test [11] were 16 mm and 18 mm, respectively.
Regarding `C=CCSc1nc2ccc(N)cc2c(=O)n1Cc1ccccc1`, the “diameter of the inhibition zone (DIZ)” value in test [3], in test [5], in [7], in test [10] and in test [11] was “inactive” each time. For the same compound, the results for the IC50 in test [4] and in [8] were 5000 nM and 8000 nM, respectively. Also, the outcome in test [6] and in test [9] was inactive.
As to `C=CCNc1ccc2nc(SCC=C)n(Cc3ccccc3)c(=O)c2c1`, the “diameter of the inhibition zone (DIZ)” value in test [3], in test [5], in [7], in test [10] and in test [11] was “inactive” throughout. The concentration for half-maximal inhibition (IC50) in test [4] was found to be 1000 nM; in [8], 800 nM. Besides, the result in test [6] and in test [9] was inactive.
As to `Nc1ccc2nc(SC/C=C/c3ccccc3)n(Cc3ccccc3)c(=O)c2c1`, the “diameter of the inhibition zone (DIZ)” value in [3], in test [5], in test [7], in test [10] and in test [11] was “inactive” each time. In addition, the IC50 in test [4] is 6000 nM; in test [8], 8000 nM. The outcome in test [6] and in test [9] was inactive.
Take `C=CCNc1ccc2nc(SC)n(Cc3ccccc3)c(=O)c2c1`: the “diameter of the inhibition zone (DIZ)” value in test [3], in test [5], in [10] and in test [11] was “inactive” each time. Also, the figures for the IC50 in test [4] and in test [8] were 800 nM and 600 nM, respectively. For the same compound, the outcome in [6] and in test [9] was inactive. Also, in test [7], the zone of inhibition at 200 µg/disc turned out to be 17 mm.
Consider `C=CCSc1nc2ccc(C)cc2c(=O)n1Cc1ccccc1`, for which the “diameter of the inhibition zone (DIZ)” value in test [3], in test [5], in [7], in test [10] and in [11] was “inactive” in each case. For the same compound, the figures for the IC50 in test [4] and in test [8] were 4000 nM and 2000 nM, respectively. The outcome in test [6] and in test [9] was inactive.
Turning to `Cc1ccc2nc(SC/C=C/c3ccccc3)n(Cc3ccccc3)c(=O)c2c1`, the “diameter of the inhibition zone (DIZ)” value in test [3], in test [5], in test [7], in test [10] and in test [11] was “inactive” each time. Moreover, the IC50 in [4] stood at 1000 nM; in [8] it was 500 nM. Moreover, the result in test [6] and in [9] was inactive.
On to `C=CCN(C)c1ccc2nc(SC)n(Cc3ccccc3)c(=O)c2c1`, for which the “diameter of the inhibition zone (DIZ)” value in test [3], in [5], in [7], in test [10] and in test [11] was “inactive” throughout. Also, the IC50 in test [4] turned out to be 2000 nM; in [8] it was 1000 nM. Further, the result in [6] and in test [9] was inactive.
`CCSc1nc2ccc([N+](=O)[O-])cc2c(=O)n1Cc1ccccc1`: inhibition of growth in test [1] (MIC) required 8 µg/mL (≈ 23.4 µM). Besides, the zone of inhibition at 200 µg/disc in test [3] is 15 mm; in test [7], 20 mm. Further, the “diameter of the inhibition zone (DIZ)” value in test [5], in test [10] and in test [11] was “inactive” each time. Moreover, the outcome in [6] and in test [9] was inactive. The compound further displayed an IC50 in test [8] of 10000 nM.
In the case of `Cc1ccc2nc(S)n(Cc3ccccc3)c(=O)c2c1`, the minimum inhibitory concentration (MIC) in test [1] and in test [2] was 4 µg/mL (≈ 14.2 µM) in each case. For the same compound, the zone of inhibition at 200 µg/disc came out at 15 mm in [3]; 17 mm in test [7]; 14 mm in test [10] (Micrococcus luteus, 24 h, read-out: DIZ); 18 mm in test [11]. The “diameter of the inhibition zone (DIZ)” value in test [5] is “inactive”. The outcome in [6] and in [9] was inactive. The IC50 in test [8] stood at 30000 nM.
For `C=CCSc1nc2ccc(N(C/C=C/c3ccccc3)C/C=C/c3ccccc3)cc2c(=O)n1Cc1ccccc1`, the minimal inhibitory concentration (MIC) in test [1] came out at 16 µg/mL (≈ 28.8 µM); in test [2] it was 4 µg/mL (≈ 7.2 µM); in test [12] it was 4 µg/mL (≈ 7.2 µM). The “diameter of the inhibition zone (DIZ)” value in [3] and in test [10] was “inactive” throughout. The half-maximal inhibitory concentration (IC50) in [4] came to 700 nM; in test [8] it was 500 nM. For the same compound, the figures for the zone of inhibition at 200 µg/disc in [5] (read-out: DIZ), in [7] and in [11] were 22 mm, 16 mm and 20 mm, respectively. The outcome in test [6] and in [9] was inactive.
For `C=CCN(CC=C)c1ccc2nc(SC)n(Cc3ccccc3)c(=O)c2c1`, the “diameter of the inhibition zone (DIZ)” value in test [3], in test [5], in test [7], in test [10] and in [11] was “inactive” in each case. The values for the IC50 in test [4] and in [8] were 1000 nM and 3000 nM, respectively. Also, the outcome in test [6] and in [9] was inactive.
